Tested on: FICDs (c-FMS intracellular fragments)
Assay: FICD generation in M-CSF-cultured human CD14+ cells, immunoblot of whole lysates
Type: cell-based
Conditions: MDL28170 treatment
Method: FIGS. 8A-8I show c-FMS expression in synovial macrophages. (A) The levels of M-CSF in synovial fluids from patients with rheumatoid arthritis (RA, n=13) and osteoarthritis (OA, n=8) were measured. (B) Mass spectrometry analysis for proteins from ˜50 kDa bands (red box) identified c-FMS as one of top genes. An image of coomassie blue stained genes showing immunoprecipitated cells lysates with either anti-DDK-tag antibodies or IgG control. (C-G) Human CD14+ cells were cultured with M-CSF (20ng/ml). Immunoblot of c-FMS with different antibodies against C-terminal of c-FMS; (C) C-20, (D) D-8, and (E) #3152. Immunoblot of c-FMS with different antibodies against N-terminal of c-FMS; (F) #61701, (G) H-300. (H-I) Human CD14+ cells were cultured with M-CSF (20 ng/ml) for 8 hours to induce early signals, and then BB94 (10 uM) was added for 2 days. (H) Immunoblot with anti c-FMS and α-tubulin antibodies in whole lysates (n=3). (I) Soluble c-FMS was detected by ELISA (n=3). […] All data are shown as mean±SEM. *; p<0.05 significant by two-tailed, paired t-test (A and I). M: mature form, I: immature form, H: hgh mass, L: low mass.
FIGS. 10A-10F show calpain regulates FICD generation. (A and B) Human CD14+ cells were cultured with M-CSF (20 ng/ml) for 8 hours to induce early signals and then (A) MDL 28170(0, 1, 2, 5 uM) or (B) PD150606 (0, 2, 5 uM) was added for 2 days. […]

MDL28170
L-FICD: decreased

Reference: patent US20220370463A1, “STABILIZED C-FMS INTRACELLULAR FRAGMENTS (FICD) PROMOTE OSTEOCLAST DIFFERENTIATION AND ARTHRITIC BONE EROSION” (New York Society for the Relief of the Ruptured and …, priority 2019, published 2022)
